Patent US20210338846A1, “COMPETITIVE PROSTATE-SPECIFIC MEMBRANE ANTIGEN (PSMA) BINDING AGENTS FOR REDUCTION OF NON-TARGET ORGAN UPTAKE OF RADIOLABELED PSMA INHIBITORS FOR PSMA POSITIVE TUMOR IMAGING AND RADIOPHARMACEUTICAL THERAPY” (The Johns Hopkins University, priority 2018, published 2021)
Several values for one entry are separate records, joined by “and”; a condition that tells them apart may be missing. Identical values can stand only once. Like-named read-outs stand apart in the source and are kept apart here.

Experiments:
[1] = system: PSMA+ PC-3 PiP and PSMA− PC-3 flu tumors; assay type: in vivo
[2] = system: PSMA+ PC-3 PiP and PSMA− PC-3 flu tumors
[3] = 2 Hour (head; title: One-Hour), No CI
[4] = 2 Hour (head; title: One-Hour), co-injection 0.5 nmole VK-02-90
[5] = 2 Hour (head; title: One-Hour), co-injection 1.0 nmole VK-02-90
[6] = 2 Hour (head; title: One-Hour), co-injection 5.0 nmole VK-02-90
[7] = 4 Hour, co-injection 0.5 nmole VK-02-90
[8] = 4 Hour, co-injection 1.0 nmole VK-02-90
[9] = 4 Hour, co-injection 5.0 nmole VK-02-90
[10] = 1 h, co-injection 0.5 nmole YC-I-27
[11] = 1 h, co-injection 1.0 nmole YC-I-27
[12] = 1 h, co-injection 5.0 nmole YC-I-27
[13] = 4 h, co-injection 0.5 nmole YC-I-27
[14] = 4 h, co-injection 1.0 nmole YC-I-27
[15] = 4 h, co-injection 5.0 nmole YC-I-27
[16] = 24 h, co-injection 0.5 nmole YC-I-27

Compound: O=C([O-])CN1CCN(CC(=O)[O-])CCN(CC(=O)NCCCCC(=O)N(CCCC[C@H](NC(=O)N[C@@H](CCC(=O)O)C(=O)O)C(=O)O)Cc2ccc([125I])cc2)CCN(CC(=O)[O-])CC1.[Lu+3] [[^125I]VK-02-90-Lu]
- Biodistribution: Blood [1, 3]: 1.1 ± 0.1 % injected dose/gram
- Biodistribution: Flu tumor [1, 3]: 1.0 ± 0.2 % injected dose/gram
- Biodistribution: Lacrimal gland [1, 3]: 2.1 ± 0.9 % injected dose/gram
- Biodistribution: PiP tumor [1, 3]: 26 ± 3 % injected dose/gram
- Biodistribution: Salivary gland [1, 3]: 2.3 ± 0.5 % injected dose/gram
- Biodistribution: kidneys [1, 3]: 129 ± 15 % injected dose/gram
- Biodistribution: spleen [1, 3]: 4.3 ± 0.9 % injected dose/gram
- Biodistribution: stomach [1, 3]: 1.7 ± 0.3 % injected dose/gram
- Biodistribution: Blood [1, 4]: 0.4 ± 0.1 % injected dose/gram
- Biodistribution: Flu tumor [1, 4]: 0.6 ± 0.3 % injected dose/gram
- Biodistribution: Lacrimal gland [1, 4]: 0.4 ± 0.1 % injected dose/gram
- Biodistribution: PiP tumor [1, 4]: 37 ± 7 % injected dose/gram
- Biodistribution: Salivary gland [1, 4]: 0.2 ± 0.03 % injected dose/gram
- Biodistribution: kidneys [1, 4]: 10 ± 2.5 % injected dose/gram
- Biodistribution: spleen [1, 4]: 1.1 ± 0.4 % injected dose/gram
- Biodistribution: stomach [1, 4]: 0.2 ± 0.1 % injected dose/gram
- Biodistribution: Blood [1, 5]: 0.4 ± 0.1 % injected dose/gram
- Biodistribution: Flu tumor [1, 5]: 0.5 ± 0.1 % injected dose/gram
- Biodistribution: Lacrimal gland [1, 5]: 0.4 ± 0.1 % injected dose/gram
- Biodistribution: PiP tumor [1, 5]: 35 ± 9 % injected dose/gram
- Biodistribution: Salivary gland [1, 5]: 0.2 ± 0.06 % injected dose/gram
- Biodistribution: kidneys [1, 5]: 6.5 ± 0.9 % injected dose/gram
- Biodistribution: spleen [1, 5]: 1.1 ± 0.4 % injected dose/gram
- Biodistribution: stomach [1, 5]: 0.2 ± 0.04 % injected dose/gram
- Biodistribution: Blood [1, 6]: 0.5 ± 0.1 % injected dose/gram
- Biodistribution: Flu tumor [1, 6]: 0.9 ± 0.3 % injected dose/gram
- Biodistribution: Lacrimal gland [1, 6]: 0.4 ± 0.03 % injected dose/gram
- Biodistribution: PiP tumor [1, 6]: 24 ± 4 % injected dose/gram
- Biodistribution: Salivary gland [1, 6]: 0.3 ± 0.1 % injected dose/gram
- Biodistribution: kidneys [1, 6]: 4.2 ± 0.5 % injected dose/gram
- Biodistribution: spleen [1, 6]: 0.7 ± 0.2 % injected dose/gram
- Biodistribution: stomach [1, 6]: 0.2 ± 0.06 % injected dose/gram
- Biodistribution: Blood ([1]; 4 Hour, No CI): 0.3 ± 0.2 % injected dose/gram
- Biodistribution: Flu tumor ([1]; 4 Hour, No CI): 0.2 ± 0.1 % injected dose/gram
- Biodistribution: Lacrimal gland ([1]; 4 Hour, No CI): 0.4 ± 0.2 % injected dose/gram
- Biodistribution: PiP tumor ([1]; 4 Hour, No CI): 27 ± 8 % injected dose/gram
- Biodistribution: Salivary gland ([1]; 4 Hour, No CI): 1.8 ± 0.2 % injected dose/gram
- Biodistribution: kidneys ([1]; 4 Hour, No CI): 10 ± 2.5 % injected dose/gram
- Biodistribution: spleen ([1]; 4 Hour, No CI): 0.6 ± 0.2 % injected dose/gram
- Biodistribution: stomach ([1]; 4 Hour, No CI): 0.8 ± 0.5 % injected dose/gram
- Biodistribution: Blood [1, 7]: 0.02 ± 0.01 % injected dose/gram
- Biodistribution: Flu tumor [1, 7]: 0.1 ± 0.02 % injected dose/gram
- Biodistribution: Lacrimal gland [1, 7]: 0.1 ± 0.03 % injected dose/gram
- Biodistribution: PiP tumor [1, 7]: 25 ± 2 % injected dose/gram
- Biodistribution: Salivary gland [1, 7]: 0.08 ± 0.04 % injected dose/gram
- Biodistribution: kidneys [1, 7]: 2.1 ± 0.7 % injected dose/gram
- Biodistribution: spleen [1, 7]: 0.2 ± 0.1 % injected dose/gram
- Biodistribution: stomach [1, 7]: 0.06 ± 0.01 % injected dose/gram
- Biodistribution: Blood [1, 8]: 0.2 ± 0.01 % injected dose/gram
- Biodistribution: Flu tumor [1, 8]: 0.1 ± 0.03 % injected dose/gram
- Biodistribution: Lacrimal gland [1, 8]: 0.1 ± 0.05 % injected dose/gram
- Biodistribution: PiP tumor [1, 8]: 27 ± 4 % injected dose/gram
- Biodistribution: Salivary gland [1, 8]: 0.1 ± 0.02 % injected dose/gram
- Biodistribution: kidneys [1, 8]: 1.4 ± 0.4 % injected dose/gram
- Biodistribution: spleen [1, 8]: 0.2 ± 0.1 % injected dose/gram
- Biodistribution: stomach [1, 8]: 0.1 ± 0.03 % injected dose/gram
- Biodistribution: Blood [1, 9]: 0 % injected dose/gram
- Biodistribution: Flu tumor [1, 9]: 0.1 ± 0.01 % injected dose/gram
- Biodistribution: Lacrimal gland [1, 9]: 0.1 ± 0.1 % injected dose/gram
- Biodistribution: PiP tumor [1, 9]: 19 ± 2 % injected dose/gram
- Biodistribution: Salivary gland [1, 9]: 0.05 ± 0.02 % injected dose/gram
- Biodistribution: kidneys [1, 9]: 0.9 ± 0.3 % injected dose/gram
- Biodistribution: spleen [1, 9]: 0.15 ± 0.08 % injected dose/gram
- Biodistribution: stomach [1, 9]: 0.1 ± 0.04 % injected dose/gram
- Biodistribution: Blood ([2]; 1 h, No CI): 1.1 ± 0.1 % injected dose/gram
- Biodistribution: Flu tumor ([2]; 1 h, No CI): 1.0 ± 0.2 % injected dose/gram
- Biodistribution: Lacrimal gland ([2]; 1 h, No CI): 2.1 ± 0.9 % injected dose/gram
- Biodistribution: PiP tumor ([2]; 1 h, No CI): 26 ± 3 % injected dose/gram
- Biodistribution: Salivary gland ([2]; 1 h, No CI): 2.3 ± 0.5 % injected dose/gram
- Biodistribution: kidneys ([2]; 1 h, No CI): 129 ± 15 % injected dose/gram
- Biodistribution: spleen ([2]; 1 h, No CI): 4.3 ± 0.9 % injected dose/gram
- Biodistribution: stomach ([2]; 1 h, No CI): 1.7 ± 0.3 % injected dose/gram
- Biodistribution: Blood [2, 10]: 1.1 ± 0.1 % injected dose/gram
- Biodistribution: Flu tumor [2, 10]: 1.0 ± 0.3 % injected dose/gram
- Biodistribution: Lacrimal gland [2, 10]: 0.5 ± 0.1 % injected dose/gram
- Biodistribution: PiP tumor [2, 10]: 42 ± 4 % injected dose/gram and 42 ± 4.2 % injected dose/gram
- Biodistribution: Salivary gland [2, 10]: 3.2 ± 0.7 % injected dose/gram
- Biodistribution: kidneys [2, 10]: 4.2 ± 1.3 % injected dose/gram
- Biodistribution: spleen [2, 10]: 0.8 ± 0.2 % injected dose/gram
- Biodistribution: stomach [2, 10]: 1.8 ± 0.2 % injected dose/gram
- Biodistribution: Blood [2, 11]: 1.0 ± 0.1 % injected dose/gram
- Biodistribution: Flu tumor [2, 11]: 0.8 ± 0.2 % injected dose/gram
- Biodistribution: Lacrimal gland [2, 11]: 0.6 ± 0.05 % injected dose/gram
- Biodistribution: PiP tumor [2, 11]: 29 ± 2 % injected dose/gram
- Biodistribution: Salivary gland [2, 11]: 2.9 ± 0.4 % injected dose/gram
- Biodistribution: kidneys [2, 11]: 2.4 ± 0.8 % injected dose/gram
- Biodistribution: spleen [2, 11]: 0.6 ± 0.1 % injected dose/gram
- Biodistribution: stomach [2, 11]: 1.8 ± 0.3 % injected dose/gram
- Biodistribution: Blood [2, 12]: 1.1 ± 0.2 % injected dose/gram
- Biodistribution: Flu tumor [2, 12]: 0.8 ± 0.2 % injected dose/gram
- Biodistribution: Lacrimal gland [2, 12]: 1.1 ± 0.6 % injected dose/gram
- Biodistribution: PiP tumor [2, 12]: 20 ± 3 % injected dose/gram
- Biodistribution: Salivary gland [2, 12]: 5.1 ± 1.7 % injected dose/gram
- Biodistribution: kidneys [2, 12]: 2.3 ± 0.7 % injected dose/gram
- Biodistribution: spleen [2, 12]: 0.7 ± 0.1 % injected dose/gram
- Biodistribution: stomach [2, 12]: 2.2 ± 0.7 % injected dose/gram
- Biodistribution: Blood ([2]; 4 h, No CI): 0.3 ± 0.2 % injected dose/gram
- Biodistribution: Flu tumor ([2]; 4 h, No CI): 0.2 ± 0.1 % injected dose/gram and 0.25 ± 0.1 % injected dose/gram
- Biodistribution: Lacrimal gland ([2]; 4 h, No CI): 0.4 ± 0.2 % injected dose/gram
- Biodistribution: PiP tumor ([2]; 4 h, No CI): 27 ± 7 % injected dose/gram and 27 ± 8 % injected dose/gram
- Biodistribution: Salivary gland ([2]; 4 h, No CI): 1.8 ± 0.2 % injected dose/gram
- Biodistribution: kidneys ([2]; 4 h, No CI): 9.5 ± 2.5 % injected dose/gram and 10 ± 2.5 % injected dose/gram
- Biodistribution: spleen ([2]; 4 h, No CI): 0.6 ± 0.2 % injected dose/gram
- Biodistribution: stomach ([2]; 4 h, No CI): 0.8 ± 0.5 % injected dose/gram
- Biodistribution: Blood [2, 13]: 0.4 ± 0.06 % injected dose/gram
- Biodistribution: Flu tumor [2, 13]: 0.3 ± 0.1 % injected dose/gram
- Biodistribution: Lacrimal gland [2, 13]: 0.2 ± 0.02 % injected dose/gram and 0.4 ± 0.02 % injected dose/gram
- Biodistribution: PiP tumor [2, 13]: 24 ± 3 % injected dose/gram
- Biodistribution: Salivary gland [2, 13]: 3.3 ± 0.8 % injected dose/gram
- Biodistribution: kidneys [2, 13]: 0.9 ± 0.1 % injected dose/gram
- Biodistribution: spleen [2, 13]: 0.25 ± 0.07 % injected dose/gram
- Biodistribution: stomach [2, 13]: 1.3 ± 0.2 % injected dose/gram
- Biodistribution: Blood [2, 14]: 0.4 ± 0.05 % injected dose/gram
- Biodistribution: Flu tumor [2, 14]: 0.3 ± 0.1 % injected dose/gram
- Biodistribution: Lacrimal gland [2, 14]: 0.2 ± 0.03 % injected dose/gram
- Biodistribution: PiP tumor [2, 14]: 24 ± 1 % injected dose/gram
- Biodistribution: Salivary gland [2, 14]: 3.2 ± 0.7 % injected dose/gram
- Biodistribution: kidneys [2, 14]: 0.6 ± 0.03 % injected dose/gram
- Biodistribution: spleen [2, 14]: 0.2 ± 0.04 % injected dose/gram
- Biodistribution: stomach [2, 14]: 1.2 ± 0.2 % injected dose/gram
- Biodistribution: Blood [2, 15]: 0.4 ± 0.1 % injected dose/gram
- Biodistribution: Flu tumor [2, 15]: 0.3 ± 0.1 % injected dose/gram
- Biodistribution: Lacrimal gland [2, 15]: 0.5 ± 0.5 % injected dose/gram
- Biodistribution: PiP tumor [2, 15]: 14 ± 5 % injected dose/gram
- Biodistribution: Salivary gland [2, 15]: 5.0 ± 1.4 % injected dose/gram
- Biodistribution: kidneys [2, 15]: 0.7 ± 0.1 % injected dose/gram
- Biodistribution: spleen [2, 15]: 0.3 ± 0.06 % injected dose/gram
- Biodistribution: stomach [2, 15]: 1.6 ± 0.4 % injected dose/gram
- Biodistribution: Blood ([2]; 24 h, No CI): 0.01 ± 0.01 % injected dose/gram
- Biodistribution: Flu tumor ([2]; 24 h, No CI): 0.05 ± 0.01 % injected dose/gram
- Biodistribution: Lacrimal gland ([2]; 24 h, No CI): 0.05 ± 0.04 % injected dose/gram
- Biodistribution: PiP tumor ([2]; 24 h, No CI): 18 ± 6 % injected dose/gram
- Biodistribution: Salivary gland ([2]; 24 h, No CI): 0.02 ± 0.08 % injected dose/gram
- Biodistribution: kidneys ([2]; 24 h, No CI): 1.3 ± 0.7 % injected dose/gram
- Biodistribution: spleen ([2]; 24 h, No CI): 0.1 ± 0.05 % injected dose/gram
- Biodistribution: stomach ([2]; 24 h, No CI): 0.01 ± 0.04 % injected dose/gram
- Biodistribution: Blood [2, 16]: 0.1 ± 0.01 % injected dose/gram
- Biodistribution: Flu tumor [2, 16]: 0.04 ± 0.01 % injected dose/gram
- Biodistribution: Lacrimal gland [2, 16]: 0.03 ± 0.02 % injected dose/gram
- Biodistribution: PiP tumor [2, 16]: 16 ± 4 % injected dose/gram
- Biodistribution: Salivary gland [2, 16]: 0.02 ± 0.01 % injected dose/gram
- Biodistribution: kidneys [2, 16]: 0.5 ± 0.2 % injected dose/gram
- Biodistribution: spleen [2, 16]: 0.04 ± 0.01 % injected dose/gram
- Biodistribution: stomach [2, 16]: 0.04 ± 0.04 % injected dose/gram
